Reference: US20230416239A1, “COMPOUNDS AND METHODS FOR TREATING A CYTOKINE-MEDIATED DISEASE” (CONSERVATOIRE NATIONAL DES ARTS ET MÉTIERS, priority 2020, published 2023)
pIC50: −log10 of the molar value.

Legend:
IL-6 = IL-6 (Homo sapiens, UniProt P05231); test: Immunoassay binding test, IL-6 (gp130 receptor, IL-6Ra present); conditions: IL-6Ra 200 ng/ml
Procedure, shortened: (§1)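 Compounds (final 100 to 0.78 μM) were preincubated 2 h at 37 °C with a fixed amount of cytokine; for IL-6, IL-6Ra was also present at 200 ng/ml final. Mixtures were then incubated overnight at 4 °C on receptor-coated plates. Bound cytokine was detected with biotinylated anti-cytokine antibody and avidin-HRP, read as OD at 450 nm.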

IL-13 = IL-13 (Homo sapiens, UniProt P35225); test: Immunoassay binding test, IL-13; conditions: for pIC50: IL-13 400 ng/ml, receptor 100 ng/ml, read-out: BINDING IL13 IC50
Procedure, shortened: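 Receptor-coated plates; compounds (100 to 0.78 μM final) preincubated 2 h at 37° C with fixed cytokine, then bound to receptor overnight at 4° C. Bound cytokine detected with biotinylated anti-cytokine antibody and avidin-HRP, OD 450 nm.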

IL-4 = molecular target: T1, IL-4 (Homo sapiens, UniProt P05112); test: Immunoassay binding test, IL-4; conditions: for pIC50: IL-4 400 ng/ml, receptor 100 ng/ml, read-out: BINDING IL4 IC50
T1 sequence (P05112 25-153): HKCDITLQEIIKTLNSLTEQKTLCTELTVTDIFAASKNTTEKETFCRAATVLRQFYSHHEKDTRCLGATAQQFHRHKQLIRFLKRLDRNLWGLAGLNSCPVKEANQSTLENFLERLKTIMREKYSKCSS
Procedure, shortened: as §1

TNFa/TNFRI interaction = TNFa/TNFRI interaction (Homo sapiens, UniProt P01375); test: TNFa/TNFRI interaction displacement test; assay type: binding; conditions: compounds at 50 μM; human TNFRI 100 ng/ml
Procedure, shortened: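 Plates coated overnight at 4° C with human TNFRI (100 ng/ml) and blocked with 2% BSA, then test mixtures were incubated overnight at 4° C. Bound cytokine detected with biotinylated anti-cytokine antibody (2 h, 37° C) and avidin-HRP, read as OD at 450 nm.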

TNFα = TNFα (Homo sapiens, UniProt P01375); test: Immunoassay binding test, TNFa; conditions: compounds 100 to 0.78 μM; TNFα 10 ng/ml, receptor 100 ng/ml; read-out: BINDING TNF IC50
Procedure, shortened: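 ELISA-type binding test: receptor-coated plates blocked with 2% BSA, then cytokine (six-point dilution series) preincubated 2 h at 37 °C and bound overnight at 4 °C. Detection used biotinylated anti-cytokine antibody and avidin-HRP, read as OD at 450 nm. For IL-6, IL-6Ra was present at 200 ng/ml final.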

IL-13, sequence (P35225 25-146, species assumed): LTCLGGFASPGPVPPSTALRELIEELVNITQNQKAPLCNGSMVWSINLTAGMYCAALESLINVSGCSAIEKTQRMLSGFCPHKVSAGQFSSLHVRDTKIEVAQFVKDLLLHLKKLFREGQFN
IL-6, sequence (P05231 30-212, species assumed): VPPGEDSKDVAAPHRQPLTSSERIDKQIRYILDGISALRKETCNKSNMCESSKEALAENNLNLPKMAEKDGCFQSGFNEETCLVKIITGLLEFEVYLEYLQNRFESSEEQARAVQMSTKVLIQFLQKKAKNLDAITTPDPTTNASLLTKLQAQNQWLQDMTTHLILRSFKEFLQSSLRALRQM
TNFα, sequence (P01375 77-233 limits assumed, species assumed): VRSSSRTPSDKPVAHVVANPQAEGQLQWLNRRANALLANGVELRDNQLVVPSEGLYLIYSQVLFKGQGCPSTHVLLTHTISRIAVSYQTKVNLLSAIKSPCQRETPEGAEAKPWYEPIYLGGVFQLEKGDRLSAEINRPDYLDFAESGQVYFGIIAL
TNFa/TNFRI interaction, sequence (P01375 77-233 limits assumed): as the sequence (P01375 77-233 limits assumed, species assumed) above

SMILES	BINDING IL6 % Neutra at 100 μM (IL-6)	BINDING IL13 % Neutra at 100 μM (IL-13)	pIC50 (IL-13)	BINDING IL4 % Neutra at 100 μM (IL-4)	pIC50 (IL-4)	Displacement (%) (TNFa/TNFRI interaction)	pIC50 (TNFα)
CN(CCCCN(Cc1cccnc1F)Cc1cn(S(=O)(=O)c2ccccc2)c2ccccc12)C1CCC1 [Compound 70, N′-cyclobutyl-N^4-((2-fluoropyridin-3-yl)methyl)-N′-methyl-N^4-((1-(phenylsulfonyl)-1H-indol-3-yl)methyl)butane-1,4-diamine]	1%	69.6%	< 4.00	92.4%	4.87	126%	4.94
CN(CCCCN(Cc1cccnc1F)Cc1cn(S(=O)(=O)c2ccccc2)c2ccccc12)C1CCCC1 [Compound 72, N′-cyclopentyl-N^4-((2-fluoropyridin-3-yl)methyl)-N′-methyl-N^4-((1-(phenylsulfonyl)-1H-indol-3-yl)methyl)butane-1,4-diamine]	3%	92.1%	< 4.30	89.8%	5.09	208%	5.01
O=S(=O)(c1ccccc1)n1cc(CN(CCCCNC2CCCCCC2)Cc2cccnc2F)c2ccccc21 [Compound 73, N′-cycloheptyl-N^4-((2-fluoropyridin-3-yl)methyl)-N^4-((1-(phenylsulfonyl)-1H-indol-3-yl)methyl)butane-1,4-diamine]	0%	87.2%	4.83	91.0%	5.22	161%	5.08
CN(CCCCN(Cc1cccnc1F)Cc1cn(S(=O)(=O)c2ccccc2)c2ccccc12)C1CCCCCC1 [Compound 74, N′-cycloheptyl-N^4-((2-fluoropyridin-^3-yl)methyl)-N′-methyl-N^4-((1-(phenylsulfonyl)-1H-indol-^3-yl)methyl)butane-1,4-diamine]	0%	87.3%	< 4.30	91.9%	5.24	160%	5.18
O=S(=O)(c1ccccc1)n1cc(CN(CCCCNC2CCCCCCC2)Cc2cccnc2F)c2ccccc21 [Compound 75, N′-cyclooctyl-N^4-((2-fluoropyridin-3-yl)methyl)-N^4-((1-(phenylsulfonyl)-1H-indol-3-yl)methyl)butane-1,4-diamine]	0%	85.8%	< 4.30	92.0%	5.07	147%	4.95
NS(=O)(=O)NCCCCN(Cc1cccnc1F)Cc1cn(S(=O)(=O)c2ccccc2)c2ccccc12 [Compound 77]	0%	0%		13.7%	< 4.00	35%	< 4.30
CN(C)S(=O)(=O)NCCCCN(Cc1cccnc1F)Cc1cn(S(=O)(=O)c2ccccc2)c2ccccc12 [Compound 78]	0%	0%		33.5%	< 4.30	11%	< 4.30
CCN(CC)S(=O)(=O)NCCCCN(Cc1cccnc1F)Cc1cn(S(=O)(=O)c2ccccc2)c2ccccc12 [Compound 79]	1%	0%		31.0%	< 4.00	3%	< 4.30
O=S(=O)(NCCCCN(Cc1cccnc1F)Cc1cn(S(=O)(=O)c2ccccc2)c2ccccc12)N1CCCCC1 [Compound 80]	0%	0%		29.1%	< 4.00	0%	< 4.30
O=S(=O)(NCCCCN(Cc1cccnc1F)Cc1cn(S(=O)(=O)c2ccccc2)c2ccccc12)N1CCCCCC1 [Compound 81]	1%	0%		39.3%	< 4.30	0%	< 4.30
O=S(=O)(NCCCCN(Cc1cccnc1F)Cc1cn(S(=O)(=O)c2ccccc2)c2ccccc12)N1CCOCC1 [Compound 82]	5%	0%		27.9%	< 4.00	18%	< 4.30
